Measured values as given in patent publication US6866858B2, “Method and compositions for attracting mosquitoes” (BioSensory, Inc., priority 2000, dated 2005).
“And” between values parts separate entries of the source, which are not always exact repeats. Identical values can stand only once.

System: Aedes taeniorhyncus mosquitoes
Assay: Outdoor screened cage mosquito capture test with CO2 collection jar and attractant
Assay type: in vivo
Settings: for Average captured: average of three replicate tests; for Average captured / Total captured: 250 μL attractant + 500 cc/min CO2, 1000 mosquitoes per test; for Mosquitoes captured: single replicate test, 250 μL attractant on fibrous absorbent in CFG 6 jar with 500 cc/min CO2, 1000 mosquitoes introduced, after several hours; for Total captured: sum of three replicate tests; for Average increase in capture over control: versus CO2-only control (average 334 captured)
Method: The following tests were conducted by the United States Department of Agriculture in Florida in a large outdoor screened cage of a size of approximately 30 ft.×60 ft.×20 ft. (9.144×18.288×6.096 meters). Into approximately the center of the base of the cage was placed a CFG 6 Collection Jar of American Biophysics providing 500 cc/min CO2. Also placed in the CFG-6 Jar was a fibrous absorbent into which had been absorbed 250 μL of the test attractant compound. There were then introduced into the cage, from the periphery thereof, 1000 Aedes taeniorhyncus mosquitoes. After a period of several hours the collection jar was examined to determine the number of mosquitoes captured. As controls, similar tests were run with the CF 6 Collection jar without any attractant compound, i.e. with only CO2. Three replicate tests were run with each test attractant compound. The compound 1-octyn-3-ol was employed as the attractant compound of this invention and 1-octenol as an example of a prior art attractant.

SMILES | Average captured | Mosquitoes captured | Total captured | Average increase in capture over control | more mosquitoes captured than the prior art 1-octen-3-ol attractant (compared with 1-octen-3-ol in the same test)
C=CC(O)CCCCC (stereo not drawn) [1-octen-3-ol, reference compound] | Average captured: 568 | 624 and 560 and 520 | 1704 | Average increase in capture over control: 234 | –
C#CC(O)CCCCC (stereo not drawn) [1-octyn-3-ol] | Average captured: 735 | 779 and 599 and 826 | 2204 | Average increase in capture over control: 401 | over 71%
